Results as given in US9018000B2, “Voltage gated calcium channel β-subunit anchoring regulator protein and uses thereof” (Agency for Science, Technology and Research, priority 2007, dated 2015).

How the values were obtained:
[1] = cited from earlier work
β-subunits = assay: co-immunoprecipitation / co-precipitation of BARP with β-subunits; assay type: binding
Protocol: To verify that BARP binds to the β-subunits in mammalian cells, co-immunoprecipitation experiments were carried out in COS-1 cells. […] To confirm this association in vivo, we determined the subcellular localization of the β-subunits in the presence of BARP in transfected PC12 and COS-1 cells.
To examine that domain I is indeed a AID-like region, we first mutated the known amino acids in the β-subunit hydrophobic groove responsible for AID interaction, and tested these mutants for association with either AID or BARP domain I by co-precipitation studies. In comparison with the AID domain that only required M196 as a crucial interacting site, almost all amino acid substitutions in the hydrophobic groove of β-subunits interfered with BARP domain I interaction (FIG. 2Cb).
Next, we determined if additional binding sites in BARP are present for β-subunit association. With the use of truncated form of the protein, in which the domain I was abolished, and co-precipitation experiments, we identified a second domain (Dom. II) downstream to the first one (FIG. 2Da).
To further confirm that both domains associate to the β-subunit in the context of full-length BARP, domain I and II were mutated to abolish their respective interaction. […]

β3/AID complex = biological target: T1, β3/AID complex (Rattus norvegicus, UniProt P54287); assay: dissociation of β3-subunits from GST-AID by competitive peptides; assay type: binding; conditions: peptide 30, 60, 300, 600 nM, four hours, Western blot of supernatant
T1 construct: expressed in transfected cells; host or cells: COS-1 (β3 lysate)
T1 sequence (P54287 whole entry, one chain of several): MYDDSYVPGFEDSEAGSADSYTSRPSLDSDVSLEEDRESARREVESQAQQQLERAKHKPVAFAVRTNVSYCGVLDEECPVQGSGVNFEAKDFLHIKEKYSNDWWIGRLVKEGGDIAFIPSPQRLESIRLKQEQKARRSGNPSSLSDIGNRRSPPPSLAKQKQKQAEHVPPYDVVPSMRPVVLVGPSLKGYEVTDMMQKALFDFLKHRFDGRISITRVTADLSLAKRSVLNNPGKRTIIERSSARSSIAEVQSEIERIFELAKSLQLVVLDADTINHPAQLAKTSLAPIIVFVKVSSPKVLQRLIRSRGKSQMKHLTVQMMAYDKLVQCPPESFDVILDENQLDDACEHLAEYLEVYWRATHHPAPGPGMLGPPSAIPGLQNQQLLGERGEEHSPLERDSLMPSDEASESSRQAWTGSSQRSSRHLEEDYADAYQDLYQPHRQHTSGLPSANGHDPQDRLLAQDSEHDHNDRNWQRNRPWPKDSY
Source text: A, Cell surface expression of HA-epitope tagged Cav1.2 and N-Myc BARP in the presence or absence of Cavβ-subunits. Intact cells expressing Cav1.2, BARP and Cavβ-subunits were immunostained with HA and Myc antibodies. Cav 1.2 AID (X) is a mutant deficient in the β-interacting domain. BARP (db) is a mutant deficient in domain I and II, BARP (LW), or BARP (LFFL), mutants are deficient in domain I and II, respectively. Non-permeabilized TsA201 cells co-expressing wt or mutated HA-Cav1.2, wt or mutated Myc-BARP and the Cavβ-subunits were immunostained with antibodies to HA (green) and Myc (red). Cav 1.2 AID (X) and BARP (db) are mutants defective in Cavβ-subunit binding. […] In vivo expressed Cavβ3-subunits were pulled-down using a GST-AID fusion protein and the complex then incubated with increasing amounts of AID or BARP Domain I peptide. The Cavβ3-subunit displaced from the GST-AID was monitored by Western blot. […] Effects of wt or mutated BARP on the I-V relationship of Ca^2+-channels are shown. […]
To verify if the AID-like domain of BARP dissociates β-subunits from the AID of α1-subunits, COS-1 cells lysate expressing β3 subunits was incubated with GST-AID fusion protein to form a β3/AID complex and subsequently, the dissociation of β3 subunits was monitored after addition of an increasing amount of competitive AID or AID-like BARP peptide (FIG. 4D).

| Molecule | association with β-subunit isoforms (β-subunits) | further results |
| --- | --- | --- |
| COC(=O)C1=C(C)NC(C)=C([N+](=O)[O-])C1c1ccccc1C(F)(F)F (stereo not shown) [BayK 8644] |  | side effects in vivo [1]: severe side effects such as dystonic neurobehavioural syndrome, hypertension and arrhythmia |
| Isolated BARP domain I: isolated AID-like β-interacting domain I of BARP, expressed as GST fusion | able to associate with all known) β-subunit isoforms |  |
| SYRDLWSLRASLELHAATASD [BARP Domain I peptide] |  | dissociation of β3-subunit from GST-AID (β3/AID complex): displaces the Cavβ3-subunit from the AID |
| isolated domain II: isolated second β-interacting domain of BARP (SEQ ID NO:8) (PRAWPRRPRRDYSIDEKTDALFHEFLRHDPHFDDAPRHR) | interacted with β2, β3 and β4, but not with β1 isoforms |  |
